Consider one compound from article PMC5218480 (PLoS ONE, 2017).

The assay deals with MV-4-11 cells. The assay is described as follows: Gene expression microarray analysis (Affymetrix PrimeView) and GSEA. The conditions noted are these: MV-4-11 cells, 48 hours. Format: cell-based, human. On the set-up: RFU PODN (11730768_x_at) / Fold change /veh PODN (11730768_x_at) / RFU LINC00158 (11744669_a_at) / Fold change /veh LINC00158 (11744669_a_at) / RFU DUSP10 (11751237_a_at) / Fold change /veh DUSP10 (11751237_a_at) / RFU ID3 (11757404_x_at) / Fold change /veh ID3 (11757404_x_at) / RFU PLEKHG5 (11737974_s_at) / Fold change /veh PLEKHG5 (11737974_s_at) / RFU LRRC4B (11730491_at) / Fold change /veh LRRC4B (11730491_at) / RFU GIMAP4 (11747438_a_at) / Fold change /veh GIMAP4 (11747438_a_at) / RFU KRT8 (11758183_x_at) / Fold change /veh KRT8 (11758183_x_at) / RFU CNN1 (11734310_a_at) / Fold change /veh CNN1 (11734310_a_at) / RFU VPS37D (11726825_at) / Fold change /veh VPS37D (11726825_at) / RFU C10orf10 (11716522_x_at) / Fold change /veh C10orf10 (11716522_x_at) / RFU KIR2DL2 /// KIR2DL4 /// KIR2DL5A /// KIR2DL5B /// KIR2DS1 /// KIR2DS2 /// KIR2DS3 /// KIR2DS4 /// KIR3DL3 /// KIR3DL3 /// KIR3DS1 (11738374_at) / Fold change /veh KIR2DL2 /// KIR2DL4 /// KIR2DL5A /// KIR2DL5B /// KIR2DS1 /// KIR2DS2 /// KIR2DS3 /// KIR2DS4 /// KIR3DL3 /// KIR3DL3 /// KIR3DS1 (11738374_at) / RFU C1QL1 (11718748_at) / Fold change /veh C1QL1 (11718748_at) / RFU TMPRSS4 (11747572_a_at) / Fold change /veh TMPRSS4 (11747572_a_at) / RFU HAMP (11756126_x_at) / Fold change /veh HAMP (11756126_x_at) / RFU RNFT2 (11725882_a_at) / Fold change /veh RNFT2 (11725882_a_at) / RFU NR4A2 (11747474_a_at) / Fold change /veh NR4A2 (11747474_a_at) / RFU ABCC12 (11746883_a_at) / Fold change /veh ABCC12 (11746883_a_at) / RFU TMEM136 (11760407_x_at) / Fold change /veh TMEM136 (11760407_x_at) / RFU CLDN22 /// WWC2 (11732394_at) / Fold change /veh CLDN22 /// WWC2 (11732394_at) / RFU HLA-DPB1 (11760878_x_at) / Fold change /veh HLA-DPB1 (11760878_x_at) / RFU SPINT1 (11716480_a_at) / Fold change /veh SPINT1 (11716480_a_at) / RFU GAP43 (11754022_s_at) / Fold change /veh GAP43 (11754022_s_at) / RFU A4GNT (11735810_at) / Fold change /veh A4GNT (11735810_at) / RFU PRB3 (11715151_x_at) / Fold change /veh PRB3 (11715151_x_at) / RFU TUBB4B (11761932_at) / Fold change /veh TUBB4B (11761932_at) / RFU CAPN14 (11732068_a_at) / Fold change /veh CAPN14 (11732068_a_at) / RFU TMCC2 (11721928_a_at) / Fold change /veh TMCC2 (11721928_a_at) / RFU IRGQ (11745062_a_at) / Fold change /veh IRGQ (11745062_a_at) / RFU FAM174B (11720279_a_at) / Fold change /veh FAM174B (11720279_a_at) / RFU TMPRSS4 (11748680_a_at) / Fold change /veh TMPRSS4 (11748680_a_at) / RFU FAM212B (11763350_a_at) / Fold change /veh FAM212B (11763350_a_at) / RFU PLEKHG5 (11743358_a_at) / Fold change /veh PLEKHG5 (11743358_a_at) / RFU ZSCAN30 (11745921_a_at) / Fold change /veh ZSCAN30 (11745921_a_at) / RFU CMKLR1 (11741424_a_at) / Fold change /veh CMKLR1 (11741424_a_at) / RFU LOC101060620 /// MAPK8IP1 (11723275_at) / Fold change /veh LOC101060620 /// MAPK8IP1 (11723275_at) / RFU SPTSSB (11747773_x_at) / Fold change /veh SPTSSB (11747773_x_at) / RFU PRSS12 (11739890_at) / Fold change /veh PRSS12 (11739890_at) / RFU BIN1 (11741810_x_at) / Fold change /veh BIN1 (11741810_x_at) / RFU WNT11 (11732464_a_at) / Fold change /veh WNT11 (11732464_a_at) / RFU C10orf10 (11716521_a_at) / Fold change /veh C10orf10 (11716521_a_at) / RFU C5orf56 (11738089_at) / Fold change /veh C5orf56 (11738089_at) / RFU CYB561 (11721691_x_at) / Fold change /veh CYB561 (11721691_x_at) / RFU ANKRD19P (11752326_a_at) / Fold change /veh ANKRD19P (11752326_a_at) / RFU OR2T12 /// OR2T33 /// OR2T8 (11738714_s_at) / Fold change /veh OR2T12 /// OR2T33 /// OR2T8 (11738714_s_at) / RFU VCAN (11748164_a_at) / Fold change /veh VCAN (11748164_a_at) / RFU JSRP1 (11732532_at) / Fold change /veh JSRP1 (11732532_at) / RFU KRTAP10-11 (11738290_x_at) / Fold change /veh KRTAP10-11 (11738290_x_at) / RFU MYO3A (11730013_a_at) / Fold change /veh MYO3A (11730013_a_at) / RFU EBF3 (11725865_a_at) / Fold change /veh EBF3 (11725865_a_at) / RFU CAMK2N1 (11719241_x_at) / Fold change /veh CAMK2N1 (11719241_x_at) / RFU C5orf56 (11738088_a_at) / Fold change /veh C5orf56 (11738088_a_at) / RFU OLFML3 (11715873_a_at) / Fold change /veh OLFML3 (11715873_a_at) / RFU LOC100653217 /// NTM (11731650_a_at) / Fold change /veh LOC100653217 /// NTM (11731650_a_at) / RFU MAPK11 (11762145_a_at) / Fold change /veh MAPK11 (11762145_a_at) / RFU FIZ1 (11724087_x_at) / Fold change /veh FIZ1 (11724087_x_at) / RFU OASL (11726364_x_at) / Fold change /veh OASL (11726364_x_at) / RFU SOX15 (11748057_x_at) / Fold change /veh SOX15 (11748057_x_at) / RFU CD79A (11719716_a_at) / Fold change /veh CD79A (11719716_a_at) / RFU HIST1H1D (11736915_at) / Fold change /veh HIST1H1D (11736915_at) / RFU CASKIN2 (11723855_a_at) / Fold change /veh CASKIN2 (11723855_a_at) / RFU LOC730098 (11760151_x_at) / Fold change /veh LOC730098 (11760151_x_at) / RFU OR4N2 (11742367_at) / Fold change /veh OR4N2 (11742367_at) / RFU PRRT2 (11749266_a_at) / Fold change /veh PRRT2 (11749266_a_at) / RFU SNX32 (11753110_a_at) / Fold change /veh SNX32 (11753110_a_at) / RFU CDHR5 (11726645_a_at) / Fold change /veh CDHR5 (11726645_a_at) / RFU RCAN1 (11760418_a_at) / Fold change /veh RCAN1 (11760418_a_at) / RFU FAM167A (11723789_a_at) / Fold change /veh FAM167A (11723789_a_at) / RFU FAM26E (11764081_at) / Fold change /veh FAM26E (11764081_at) / RFU ISYNA1 (11749810_s_at) / Fold change /veh ISYNA1 (11749810_s_at) / RFU ACY1 (11761880_at) / Fold change /veh ACY1 (11761880_at) / RFU 11764098_at / Fold change /veh 11764098_at / RFU SAMD14 (11745864_x_at) / Fold change /veh SAMD14 (11745864_x_at) / RFU NPB (11741838_a_at) / Fold change /veh NPB (11741838_a_at) / RFU TMPRSS6 (11731388_a_at) / Fold change /veh TMPRSS6 (11731388_a_at) / RFU KRTAP10-2 (11738614_at) / Fold change /veh KRTAP10-2 (11738614_at) / RFU ARHGAP8 /// PRR5-ARHGAP8 (11727945_x_at) / Fold change /veh ARHGAP8 /// PRR5-ARHGAP8 (11727945_x_at) / RFU KRTAP5-7 /// NADSYN1 (11734609_at) / Fold change /veh KRTAP5-7 /// NADSYN1 (11734609_at) / RFU RASL12 (11751679_a_at) / Fold change /veh RASL12 (11751679_a_at) / RFU CDKN2B (11736163_a_at) / Fold change /veh CDKN2B (11736163_a_at) / RFU PRF1 (11729649_at) / Fold change /veh PRF1 (11729649_at) / RFU, ZNF638 /// ZNF638-IT1 / Fold change vs veh, ZNF638 /// ZNF638-IT1 / RFU, PANK3 / Fold change vs veh, PANK3 / RFU, SH3YL1 / Fold change vs veh, SH3YL1 / RFU, ZEB2 / Fold change vs veh, ZEB2 / RFU, NRIP1 / Fold change vs veh, NRIP1 / RFU, PTTG1IP / Fold change vs veh, PTTG1IP / RFU, CAPN2 / Fold change vs veh, CAPN2 / RFU, MED14 / Fold change vs veh, MED14 / RFU, SNORA58 / Fold change vs veh, SNORA58 / RFU, C1orf63 / Fold change vs veh, C1orf63 / RFU, LRRFIP1 / Fold change vs veh, LRRFIP1 / RFU, NDUFAF7 / Fold change vs veh, NDUFAF7 / RFU, SLC12A2 / Fold change vs veh, SLC12A2 / RFU, IBTK / Fold change vs veh, IBTK / RFU, ESF1 / Fold change vs veh, ESF1 / Fold change vs veh, TMEM50B / RFU, TAOK1 / Fold change vs veh, TAOK1 / RFU, ACBD3 / Fold change vs veh, ACBD3 / RFU, TMA16 / Fold change vs veh, TMA16 / RFU, RWDD3 / Fold change vs veh, RWDD3 / RFU, BCAT1 / Fold change vs veh, BCAT1 / RFU, EDEM3 / Fold change vs veh, EDEM3 / RFU, TMEM33 / Fold change vs veh, TMEM33 / RFU, WDR75 / Fold change vs veh, WDR75 / RFU, AHCTF1 / Fold change vs veh, AHCTF1 / RFU, TFRC / Fold change vs veh, TFRC / RFU, ZDHHC17 / Fold change vs veh, ZDHHC17 / RFU, NOM1 / Fold change vs veh, NOM1 / RFU, ARL8B / Fold change vs veh, ARL8B / RFU, ZBTB11 / Fold change vs veh, ZBTB11 / RFU, TAMM41 / Fold change vs veh, TAMM41 / RFU, KIAA1704 /// LOC100996395 / Fold change vs veh, KIAA1704 /// LOC100996395 / RFU, ING1 / Fold change vs veh, ING1 / RFU, TRMT61B / Fold change vs veh, TRMT61B / RFU, FUBP3 / Fold change vs veh, FUBP3 / RFU, TP53 / Fold change vs veh, TP53 / RFU, TNKS2 / Fold change vs veh, TNKS2 / RFU, ZFP14 / Fold change vs veh, ZFP14 / RFU, ACTR2 / Fold change vs veh, ACTR2 / RFU, PPP3R1 / Fold change vs veh, PPP3R1 / RFU, PIK3R1 / Fold change vs veh, PIK3R1 / RFU, HNRNPA1 / Fold change vs veh, HNRNPA1 / RFU, RNF170 / Fold change vs veh, RNF170 / RFU, ZNF28 / Fold change vs veh, ZNF28 / RFU, RNGTT / Fold change vs veh, RNGTT / RFU, OGT / Fold change vs veh, OGT / RFU, BRD1 / Fold change vs veh, BRD1 / RFU, MARS / Fold change vs veh, MARS / RFU, ZNF655 / Fold change vs veh, ZNF655 / RFU, FAHD1 / Fold change vs veh, FAHD1 / RFU, BDP1 / Fold change vs veh, BDP1 / RFU, LRRCC1 / Fold change vs veh, LRRCC1 / RFU, ARID1A / Fold change vs veh, ARID1A / RFU, ZNF146 / Fold change vs veh, ZNF146 / RFU, ZNF330 / Fold change vs veh, ZNF330 / RFU, GPN3 / Fold change vs veh, GPN3 / RFU, C9orf123 / Fold change vs veh, C9orf123 / RFU, N4BP2L2 / Fold change vs veh, N4BP2L2 / RFU, ARFIP1 / Fold change vs veh, ARFIP1 / RFU, FAM179B / Fold change vs veh, FAM179B / RFU, BCL10 / Fold change vs veh, BCL10 / RFU, UHRF1BP1L / Fold change vs veh, UHRF1BP1L / RFU, BET1 / Fold change vs veh, BET1 / RFU, CNOT2 / Fold change vs veh, CNOT2 / RFU, ZNF268 / Fold change vs veh, ZNF268 / Fold change vs veh, ZNF507 / RFU, DGCR2 / Fold change vs veh, DGCR2 / RFU, WDSUB1 / Fold change vs veh, WDSUB1 / Fold change vs veh, HSP90B1 /// MIR3652 / RFU, ADSS / Fold change vs veh, ADSS / RFU, GK / Fold change vs veh, GK / RFU, ZNF148 / Fold change vs veh, ZNF148 / RFU, TAF9 / Fold change vs veh, TAF9 / RFU, SLC1A5 / Fold change vs veh, SLC1A5 / RFU, SLMO2 / Fold change vs veh, SLMO2 / RFU, ABCC4 / Fold change vs veh, ABCC4 / RFU, LOC101060439 /// RAP1B / Fold change vs veh, LOC101060439 /// RAP1B / RFU, RFX7 / Fold change vs veh, RFX7 / RFU, GTPBP10 / Fold change vs veh, GTPBP10 / RFU, CNEP1R1 / Fold change vs veh, CNEP1R1 / RFU, BIVM-ERCC5 /// ERCC5 / Fold change vs veh, BIVM-ERCC5 /// ERCC5 / RFU, ILF3 / Fold change vs veh, ILF3 / RFU 11762660_at / Fold change /veh 11762660_at / RFU VCAN (11757783_s_at) / Fold change /veh VCAN (11757783_s_at) / RFU DDX43 (11728927_at) / Fold change /veh DDX43 (11728927_at) / RFU KRT8 (11758188_x_at) / Fold change /veh KRT8 (11758188_x_at) / RFU NKD1 (11759106_at) / Fold change /veh NKD1 (11759106_at) / RFU SRD5A1 (11742802_a_at) / Fold change /veh SRD5A1 (11742802_a_at) / RFU TPSAB1 /// TPSB2 (11721975_s_at) / Fold change /veh TPSAB1 /// TPSB2 (11721975_s_at) / RFU GSTM3 (11746129_a_at) / Fold change /veh GSTM3 (11746129_a_at) / RFU IL23R (11737362_x_at) / Fold change /veh IL23R (11737362_x_at) / RFU TMEM51 (11727254_a_at) / Fold change /veh TMEM51 (11727254_a_at) / RFU PIWIL2 (11732686_x_at) / Fold change /veh PIWIL2 (11732686_x_at) / RFU ORM1 (11744905_x_at) / Fold change /veh ORM1 (11744905_x_at) / RFU CCDC152 (11743942_at) / Fold change /veh CCDC152 (11743942_at) / RFU ECM1 (11717891_a_at) / Fold change /veh ECM1 (11717891_a_at) / RFU IL23R (11748794_a_at) / Fold change /veh IL23R (11748794_a_at) / RFU TNFAIP8L3 (11732012_x_at) / Fold change /veh TNFAIP8L3 (11732012_x_at) / RFU MBOAT4 (11741988_at) / Fold change /veh MBOAT4 (11741988_at) / RFU 11764193_at / Fold change /veh 11764193_at / RFU TMEM53 (11763286_at) / Fold change /veh TMEM53 (11763286_at) / RFU MAGEB2 (11727129_at) / Fold change /veh MAGEB2 (11727129_at) / RFU TMEM200A (11744735_a_at) / Fold change /veh TMEM200A (11744735_a_at) / RFU CCDC152 (11751479_a_at) / Fold change /veh CCDC152 (11751479_a_at) / RFU FAM211A (11726209_a_at) / Fold change /veh FAM211A (11726209_a_at) / RFU RGS16 (11746705_a_at) / Fold change /veh RGS16 (11746705_a_at) / RFU VCAN (11755009_s_at) / Fold change /veh VCAN (11755009_s_at) / RFU RHOB (11743442_s_at) / Fold change /veh RHOB (11743442_s_at) / RFU RGS16 (11720943_a_at) / Fold change /veh RGS16 (11720943_a_at) / RFU RGS16 (11720944_at) / Fold change /veh RGS16 (11720944_at) / RFU, VPS4B / Fold change vs veh, VPS4B / RFU, CREB1 / Fold change vs veh, CREB1 / RFU, DNAJC13 / Fold change vs veh, DNAJC13 / RFU, GNAQ / Fold change vs veh, GNAQ / RFU, CDK5R1 / Fold change vs veh, CDK5R1 / RFU, ZRANB3 / Fold change vs veh, ZRANB3 / RFU, CUL4A / Fold change vs veh, CUL4A / RFU, CCNY / Fold change vs veh, CCNY / RFU, UFL1 / Fold change vs veh, UFL1 / RFU, COG3 / Fold change vs veh, COG3 / RFU, DIAPH2 / Fold change vs veh, DIAPH2 / RFU, SKA2 / Fold change vs veh, SKA2 / RFU, AFF3 / Fold change vs veh, AFF3 / RFU, LMF1 / Fold change vs veh, LMF1 / RFU, IPO11 / Fold change vs veh, IPO11 / RFU, DFFB / Fold change vs veh, DFFB / RFU, FOXP1 / Fold change vs veh, FOXP1 / RFU, CARD8 / Fold change vs veh, CARD8 / RFU, STRN3 / Fold change vs veh, STRN3 / RFU, ADK / Fold change vs veh, ADK / RFU, RASSF2 / Fold change vs veh, RASSF2 / RFU, WIPF1 / Fold change vs veh, WIPF1 / RFU, LARP1B / Fold change vs veh, LARP1B / RFU, RASA1 / Fold change vs veh, RASA1 / RFU, RB1 / Fold change vs veh, RB1 / RFU, PPFIA1 / Fold change vs veh, PPFIA1 / RFU, MAT2A / Fold change vs veh, MAT2A / RFU, CCT5 / Fold change vs veh, CCT5 / RFU, WDR92 / Fold change vs veh, WDR92 / RFU, CUX1 / Fold change vs veh, CUX1 / RFU, TTC7A / Fold change vs veh, TTC7A / RFU, TMEM135 / Fold change vs veh, TMEM135 / RFU, DEPTOR / Fold change vs veh, DEPTOR / RFU, CPM / Fold change vs veh, CPM / RFU, DNAJB6 / Fold change vs veh, DNAJB6 / RFU, CACNA2D3 / Fold change vs veh, CACNA2D3 / RFU, DTX4 / Fold change vs veh, DTX4 / RFU, TFCP2 / Fold change vs veh, TFCP2 / RFU, GMCL1 /// GMCL1P1 / Fold change vs veh, GMCL1 /// GMCL1P1 / RFU, AEBP2 / Fold change vs veh, AEBP2 / RFU, SNHG1 /// SNORD22 /// SNORD25 /// SNORD26 /// SNORD27 /// SNORD28 /// SNORD29 /// SNORD31 / Fold change vs veh, SNHG1 /// SNORD22 /// SNORD25 /// SNORD26 /// SNORD27 /// SNORD28 /// SNORD29 /// SNORD31 / Fold change (Aza/veh), C12orf56 (ProbeSet 11735607_a_at) / Fold change (ACY-1035/veh), C12orf56 (ProbeSet 11735607_a_at) / Fold change (Aza/veh), FGFR1OP (ProbeSet 11751329_s_at) / Fold change (ACY-1035/veh), FGFR1OP (ProbeSet 11751329_s_at) / Fold change (Aza/veh), VPS36 (ProbeSet 11739960_a_at) / Fold change (ACY-1035/veh), VPS36 (ProbeSet 11739960_a_at) / RFU SYPL1 (11715823_x_at) / Fold change /veh SYPL1 (11715823_x_at) / RFU IGFBP7 (11715501_s_at) / Fold change /veh IGFBP7 (11715501_s_at) / RFU REEP3 (11722064_at) / Fold change /veh REEP3 (11722064_at) / RFU IGLL1 (11728026_x_at) / Fold change /veh IGLL1 (11728026_x_at): dose or concentration left out as unconfirmed.

As for `Nc1ncn([C@@H]2O[C@H](CO)[C@@H](O)[C@H]2O)c(=O)n1` [azacitidine], the “Fold change /veh PLEKHG5 (11743358_a_at)” value turned out to be 1.07.
